# Several values for one entry are separate records, joined by “and”; a condition that tells them apart may be missing. Identical values can stand only once. Counter-ions that a name gives are not always drawn. Like-named read-outs stand apart in the source and are kept apart here.
# Columns and labels:
# [1] = tested on: gram-positive and gram-negative organisms; conditions: cited from earlier work
# [2] = tested on: β-lactamase producing bacteria; conditions: cited from earlier work
# [3] = tested on: β-lactamases; conditions: cited from earlier work
# [4] = human, in vivo, po
# Description: Serum concentrations and urinary excretion of ampicillin in fasting
# following oral administration of
# A. 125 mg of pivampicillin free base in tablets.
# B. 170 mg of VD-1827^x hydrochloride (corresponding to 125 mg of
# free base) in aqueous solution.
# Serum concentrations (μg/ml) (% of dose)
# [5] = Absorption from the gastro-intestinal tract and in vivo hydrolysis; set-up: species or system animals and human volunteers; conditions: oral, in words
# [6] = Stability of crystalline form; format: physicochemical; conditions: crystalline free base; in words
# [7] = cited from earlier work
# [8] = in words, medium not stated; cited from earlier work
# [9] = Urinary excretion in 0 to 6 hours of penicillanic acid 1,1-dioxide in fasting volunteers following oral administration (Table II); conditions: oral 73 mg potassium penicillanate 1,1-dioxide, aqueous solution, individual subjects in order GK, MK, FJ, MM, LA, 360 min
SMILES,Antibacterial activity against most gram-positive and gram-negative organisms [1],Synergy against β-lactamase producing bacteria [2],Inhibition of a wide range of β-lactamases [3],other results
"CC1(C)[C@H](C(=O)O)N2C(=O)[C@H](Cl)[C@H]2S1(=O)=O [6α-chloropenicillanic acid 1,1-dioxide]",only weak antibacterial activity,act synergistically,powerful inhibitors,–
"CC1(C)S[C@@H]2[C@H](NC(=O)[C@H](N)c3ccccc3)C(=O)N2[C@H]1C(=O)OCOC(=O)[C@@H]1N2C(=O)C[C@H]2S(=O)(=O)C1(C)C [VD-1827 hydrochloride, 1,1-Dioxopenicillanoyloxymethyl 6-(D-α-amino-α-phenylacetamido)penicillanate hydrochloride]",–,–,–,"Urinary recovery of ampicillin compared with pivampicillin [4]: comparable to that following administration of pivampicillin; Absorption from the gastro-intestinal tract ([5]; HCl, hydrochloride): efficient oral absorption"
"CC1(C)S[C@@H]2[C@H](NC(=O)[C@H](N)c3ccccc3)C(=O)N2[C@H]1C(=O)OCOC(=O)[C@@H]1N2C(=O)C[C@H]2S(=O)(=O)C1(C)C [VD-1827, free base, 1,1-Dioxopenicillanoyloxymethyl 6-(D-α-amino-α-phenylacetamido)penicillanate]",–,–,–,Absorption from the gastro-intestinal tract ([5]; listed as free base VD 1827): readily absorbable; Stability [6]: stable
"CC1(C)S[C@@H]2C(NC(=O)[C@H](N)c3ccccc3)C(=O)N2[C@H]1C(=O)O (stereo partly drawn) [ampicillin, 6-(D-α-amino-α-phenylacetamido)penicillanic acid]",–,–,–,"Absorption from the gastro-intestinal tract (general statement) ([7]; oral, in words, no data shown): incompletely absorbed"
CC1(C)S[C@@H]2[C@H](NC(=O)C(C(=O)O)c3ccccc3)C(=O)N2[C@H]1C(=O)O (some centres unmarked) [carbenicillin],–,–,–,"Absorption from the gastro-intestinal tract (general statement) ([7]; in vivo, po): incompletely absorbed"
"COc1cccc(OC)c1C(=O)N[C@@H]1C(=O)N2[C@@H](C(=O)O)C(C)(C)S(=O)(=O)[C@H]12 [methicillin sulphone, 1,1-dioxo-6β-(2,6-dimethoxybenzamido)penicillanic acid]",only weak antibacterial activity,act synergistically,powerful inhibitors,–
"CC1(C)[C@H](C(=O)O)N2C(=O)C[C@H]2S1(=O)=O [penicillanic acid 1,1-dioxide]",only weak antibacterial activity,act synergistically,powerful inhibitors,Absorption from the gastro-intestinal tract [5]: absorbed poorly or irregularly
"CC(C)(C)C(=O)OCOC(=O)[C@@H]1N2C(=O)C[C@H]2S(=O)(=O)C1(C)C [pivaloyloxymethyl ester of the β-lactamase inhibitor penicillanic acid 1,1-dioxide]",–,–,–,"Solubility (general statement) [8]: sparingly soluble; Absorption from the gastro-intestinal tract (general statement) ([7]; oral, in words, no data shown): absorbed much more slowly"
CC(C)(C)C(=O)OCOC(=O)[C@@H]1N2C(=O)[C@@H](NC(=O)[C@H](N)c3ccccc3)[C@H]2SC1(C)C [pivampicillin],–,–,–,"Absorption from the gastro-intestinal tract (general statement) ([7]; oral, in words, no data shown): absorbed very rapidly"
"CC1(C)[C@H](C(=O)[O-])N2C(=O)C[C@H]2S1(=O)=O.[K+] [potassium penicillanate 1,1-dioxide]",–,–,–,"Urinary excretion of penicillanic acid 1,1-dioxide [9]: 2.5 % of dose and 4.0 % of dose and 9.5 % of dose and 5.5 % of dose and 4.5 % of dose"
CC1(C)[C@H](C(=O)O)N2C(=O)[C@@H](NC(=O)c3nc4ccccc4nc3C(=O)O)[C@H]2S1(=O)=O [quinacillin sulphone],only weak antibacterial activity,act synergistically,powerful inhibitors,–

# — patent US4342772A, “β-Lactam compounds, antibacterial compositions thereof and method of use” (priority 1979, dated 1982)
